The target of series [1] is T1, P-gp (Homo sapiens, UniProt P08183). As to the kind of experiment: in vitro transporter substrate study. Type of series: in vitro ADME.
The target of series [2] is T1, P-gp. As to the kind of experiment: in vitro transporter inhibition study. The class given is in vitro ADME.
In series [3] the target is T2, CYP 1A2 (Homo sapiens, UniProt P05177).
T2 sequence (P05177 1-516): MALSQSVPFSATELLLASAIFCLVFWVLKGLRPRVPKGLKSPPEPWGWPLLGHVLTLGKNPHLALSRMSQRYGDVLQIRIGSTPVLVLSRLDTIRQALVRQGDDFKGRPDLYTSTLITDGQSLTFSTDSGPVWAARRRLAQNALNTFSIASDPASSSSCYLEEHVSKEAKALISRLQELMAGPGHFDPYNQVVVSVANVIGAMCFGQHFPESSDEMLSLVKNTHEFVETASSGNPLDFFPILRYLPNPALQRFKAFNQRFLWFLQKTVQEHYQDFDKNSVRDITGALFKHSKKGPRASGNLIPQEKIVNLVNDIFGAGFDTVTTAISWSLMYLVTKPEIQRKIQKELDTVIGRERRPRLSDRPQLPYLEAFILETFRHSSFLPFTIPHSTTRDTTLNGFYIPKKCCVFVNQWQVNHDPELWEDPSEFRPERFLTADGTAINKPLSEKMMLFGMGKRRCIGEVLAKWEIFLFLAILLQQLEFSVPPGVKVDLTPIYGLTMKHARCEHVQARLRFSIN

For series [4], the target named is T3, CYP 2B6 (Homo sapiens, UniProt P20813).
T3 sequence (P20813 1-491): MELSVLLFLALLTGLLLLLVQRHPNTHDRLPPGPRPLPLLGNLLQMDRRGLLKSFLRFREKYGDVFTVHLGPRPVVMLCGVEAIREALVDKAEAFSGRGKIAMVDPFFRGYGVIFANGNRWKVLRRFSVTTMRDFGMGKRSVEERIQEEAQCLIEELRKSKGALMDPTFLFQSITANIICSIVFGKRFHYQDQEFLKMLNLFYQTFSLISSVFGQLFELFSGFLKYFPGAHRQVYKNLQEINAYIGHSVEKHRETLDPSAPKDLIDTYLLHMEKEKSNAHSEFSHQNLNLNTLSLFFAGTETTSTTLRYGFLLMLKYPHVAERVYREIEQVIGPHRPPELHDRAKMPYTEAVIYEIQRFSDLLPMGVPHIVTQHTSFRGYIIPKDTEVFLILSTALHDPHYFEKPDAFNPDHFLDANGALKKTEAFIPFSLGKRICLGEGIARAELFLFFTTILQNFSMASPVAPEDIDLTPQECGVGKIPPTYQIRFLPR

Series [5] concerns the target T4, CYP 2C8 (Homo sapiens, UniProt P10632).
T4 sequence (P10632 1-490): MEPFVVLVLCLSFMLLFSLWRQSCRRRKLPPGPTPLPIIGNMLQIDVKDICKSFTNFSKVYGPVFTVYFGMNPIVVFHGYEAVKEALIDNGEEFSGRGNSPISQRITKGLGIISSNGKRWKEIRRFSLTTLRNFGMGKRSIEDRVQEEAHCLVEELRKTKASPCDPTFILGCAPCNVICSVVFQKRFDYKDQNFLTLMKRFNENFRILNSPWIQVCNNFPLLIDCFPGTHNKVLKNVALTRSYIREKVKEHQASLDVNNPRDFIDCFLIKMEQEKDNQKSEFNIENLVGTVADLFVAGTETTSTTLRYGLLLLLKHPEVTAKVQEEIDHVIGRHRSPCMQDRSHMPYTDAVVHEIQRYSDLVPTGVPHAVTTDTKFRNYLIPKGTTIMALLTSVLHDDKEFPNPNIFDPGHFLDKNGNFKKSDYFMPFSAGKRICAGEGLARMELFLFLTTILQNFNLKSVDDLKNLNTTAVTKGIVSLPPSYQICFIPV

For series [6], the target named is CYP 2C9 (Homo sapiens, UniProt P11712).
Sequence of CYP 2C9 (P11712 whole entry): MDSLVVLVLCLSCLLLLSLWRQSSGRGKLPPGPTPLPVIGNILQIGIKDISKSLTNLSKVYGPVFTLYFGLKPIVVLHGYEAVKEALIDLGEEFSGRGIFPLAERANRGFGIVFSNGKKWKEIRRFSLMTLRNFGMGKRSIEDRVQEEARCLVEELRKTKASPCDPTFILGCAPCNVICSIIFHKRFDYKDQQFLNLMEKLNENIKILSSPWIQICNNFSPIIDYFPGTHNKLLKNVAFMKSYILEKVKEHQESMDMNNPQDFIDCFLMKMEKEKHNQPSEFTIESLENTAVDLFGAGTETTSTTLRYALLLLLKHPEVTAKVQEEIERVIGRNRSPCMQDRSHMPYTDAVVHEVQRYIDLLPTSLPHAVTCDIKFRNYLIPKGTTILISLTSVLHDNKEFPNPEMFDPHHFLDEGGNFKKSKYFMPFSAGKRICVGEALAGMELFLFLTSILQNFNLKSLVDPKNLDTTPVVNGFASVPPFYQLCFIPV
For series [7], the target named is CYP 2C19 (Homo sapiens, UniProt P33261).
Sequence of CYP 2C19 (P33261 whole entry): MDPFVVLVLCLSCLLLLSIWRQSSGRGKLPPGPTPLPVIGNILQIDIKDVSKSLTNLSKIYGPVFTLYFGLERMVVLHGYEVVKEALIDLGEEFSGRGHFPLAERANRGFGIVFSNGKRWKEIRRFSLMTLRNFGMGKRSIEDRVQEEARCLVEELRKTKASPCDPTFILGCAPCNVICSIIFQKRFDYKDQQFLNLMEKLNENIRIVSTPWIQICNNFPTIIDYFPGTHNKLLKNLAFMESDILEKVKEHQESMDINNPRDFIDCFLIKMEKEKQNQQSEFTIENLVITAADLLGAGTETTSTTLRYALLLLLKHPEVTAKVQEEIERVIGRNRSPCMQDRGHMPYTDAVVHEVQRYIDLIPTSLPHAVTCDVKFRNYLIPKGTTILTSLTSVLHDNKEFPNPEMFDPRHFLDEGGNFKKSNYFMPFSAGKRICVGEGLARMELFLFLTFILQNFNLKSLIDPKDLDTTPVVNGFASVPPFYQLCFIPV
Series [8] concerns the target CYP 2D6 (Homo sapiens, UniProt P10635).
Series [9] has as its system CYP 3A4/5.

T1 sequence (P08183 whole entry): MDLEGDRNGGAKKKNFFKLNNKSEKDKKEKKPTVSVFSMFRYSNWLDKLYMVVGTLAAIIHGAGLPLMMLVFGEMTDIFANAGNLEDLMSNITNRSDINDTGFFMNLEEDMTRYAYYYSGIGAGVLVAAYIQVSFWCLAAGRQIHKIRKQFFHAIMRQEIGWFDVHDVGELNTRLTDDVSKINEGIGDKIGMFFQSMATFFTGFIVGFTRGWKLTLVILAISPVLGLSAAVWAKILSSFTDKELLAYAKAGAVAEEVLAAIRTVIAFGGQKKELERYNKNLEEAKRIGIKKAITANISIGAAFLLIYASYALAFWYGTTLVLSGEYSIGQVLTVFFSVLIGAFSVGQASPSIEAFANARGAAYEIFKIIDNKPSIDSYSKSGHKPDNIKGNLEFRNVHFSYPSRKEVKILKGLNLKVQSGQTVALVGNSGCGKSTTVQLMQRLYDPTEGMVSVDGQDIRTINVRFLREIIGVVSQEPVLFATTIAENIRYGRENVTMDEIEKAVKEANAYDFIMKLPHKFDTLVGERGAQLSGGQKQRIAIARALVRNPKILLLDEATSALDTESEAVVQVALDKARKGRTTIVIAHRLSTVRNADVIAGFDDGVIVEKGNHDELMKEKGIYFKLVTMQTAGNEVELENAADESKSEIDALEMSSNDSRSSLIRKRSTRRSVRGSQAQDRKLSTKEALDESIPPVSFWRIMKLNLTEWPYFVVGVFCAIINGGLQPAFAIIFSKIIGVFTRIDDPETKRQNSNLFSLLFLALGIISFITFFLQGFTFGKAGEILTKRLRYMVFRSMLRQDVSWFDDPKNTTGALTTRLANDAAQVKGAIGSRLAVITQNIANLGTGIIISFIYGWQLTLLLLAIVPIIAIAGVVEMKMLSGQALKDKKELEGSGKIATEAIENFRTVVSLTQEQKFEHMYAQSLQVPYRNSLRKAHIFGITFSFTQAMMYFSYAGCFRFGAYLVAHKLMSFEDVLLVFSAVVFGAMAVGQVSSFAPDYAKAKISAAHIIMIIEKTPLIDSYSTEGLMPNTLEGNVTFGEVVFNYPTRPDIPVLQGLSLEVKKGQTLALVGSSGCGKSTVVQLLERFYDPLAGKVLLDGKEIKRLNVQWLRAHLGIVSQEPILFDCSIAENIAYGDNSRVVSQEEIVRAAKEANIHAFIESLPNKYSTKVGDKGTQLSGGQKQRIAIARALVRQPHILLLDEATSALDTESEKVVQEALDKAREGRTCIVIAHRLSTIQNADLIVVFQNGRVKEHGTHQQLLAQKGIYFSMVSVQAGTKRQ
Sequence of CYP 2D6 (P10635 whole entry): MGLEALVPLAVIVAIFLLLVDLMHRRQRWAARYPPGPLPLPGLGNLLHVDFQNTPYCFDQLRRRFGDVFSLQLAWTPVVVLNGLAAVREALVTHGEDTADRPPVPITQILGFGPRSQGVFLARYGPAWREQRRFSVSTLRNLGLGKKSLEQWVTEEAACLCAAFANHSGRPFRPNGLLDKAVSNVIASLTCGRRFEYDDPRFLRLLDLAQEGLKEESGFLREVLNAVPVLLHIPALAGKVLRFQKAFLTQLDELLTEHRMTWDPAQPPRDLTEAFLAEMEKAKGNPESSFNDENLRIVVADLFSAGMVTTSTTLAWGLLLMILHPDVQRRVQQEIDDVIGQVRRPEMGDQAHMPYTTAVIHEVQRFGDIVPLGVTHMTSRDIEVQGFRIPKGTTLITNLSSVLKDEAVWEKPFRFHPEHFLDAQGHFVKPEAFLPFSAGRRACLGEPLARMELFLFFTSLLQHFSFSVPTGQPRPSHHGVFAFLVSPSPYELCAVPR

As for `CN(C)c1ccc2nc3ccc(=[N+](C)C)cc-3sc2c1` [Methylene blue, Methylthioninium Chloride (Methylene Blue)], in [1], the “substrate of membrane transport protein P-gp” value is “possible substrate”. Moreover, in series [2], the “inhibitor of P-gp” value is listed as “weak inhibitor”. Also, the “inhibition of CYP isozyme 1A2” value in series [3] is on record as “inhibits”. For the same molecule, the “inhibition of CYP isozyme 2B6” value in series [4] is listed as “inhibits”. For the same molecule, the “inhibition of CYP isozyme 2C8” value in series [5] is on record as “inhibits”. Besides, in series [6], the “inhibition of CYP isozyme 2C9” value is “inhibits”. Also, in series [7], the “inhibition of CYP isozyme 2C19” value is on record as “inhibits”. Further, in series [8], the “inhibition of CYP isozyme 2D6” value is recorded as “inhibits”. Further, the “inhibition of CYP isozyme 3A4/5” value in [9] was “inhibits”.

The values are drawn from patent US20180147301A1, “SOLID ORAL COMPOSITION CONTAINING DYES” (COSMO TECHNOLOGIES LTD., priority 2016, published 2018).
